Here are results for 14 compounds from patent US20260083751A1, “ALLOSTERIC MODULATORS OF ANDROGEN RECEPTOR COACTIVATOR RECRUITMENT FOR CRPC THERAPY” (University of Pittsburgh – Of the Commonwealth System of …, priority 2022, published 2026).

The assay addresses T1, AR-TIF2 PPI (Homo sapiens, UniProt P10275).
T1 construct: AR-LBD residues (662-919) were incorporated into one biosensor; expressed in transfected cells; host or cells: U-2 OS osteosarcoma cells, coinfected with recombinant adenoviruses
T1 sequence (P10275 662-919): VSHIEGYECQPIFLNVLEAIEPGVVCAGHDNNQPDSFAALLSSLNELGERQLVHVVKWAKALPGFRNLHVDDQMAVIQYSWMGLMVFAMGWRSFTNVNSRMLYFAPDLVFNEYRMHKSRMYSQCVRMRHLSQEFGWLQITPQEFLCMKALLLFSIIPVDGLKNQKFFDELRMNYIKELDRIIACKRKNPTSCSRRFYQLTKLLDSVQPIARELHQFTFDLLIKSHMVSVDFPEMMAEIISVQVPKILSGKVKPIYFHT
Nature of the assay: AR-TIF2 PPIB HCS assay: inhibition of DHT-induced AR-TIF2 PPI formation (compound then DHT). Type of assay: cell-based. Conditions: U-2 OS cells. Here is the method: AR-TIF2 Protein-Protein Interaction Biosensor Assay: The AR-TIF2 PPIB HCS assay was performed in U-2 OS osteosarcoma cells as described previously (Fancher et al., Assay Drug Dev Technol. 2016, 14:453-477; Fancher et al., Assay Drug Dev Technol. 2018, 16:297-319; Hua et al., Assay Drug Dev Technol. 2014, 12:395-418; Hua et al., Methods Mol Biol. 2018, 1683:211-227). Briefly, U-2 OS cells were coinfected with recombinant adenovirus biosensor expression constructs and seeded at 2,500 cells per well in 384-well collagen-coated microplates (Greiner Bio-One #781956) and plates were incubated overnight at 37° C. in 5% CO2 and 95% humidity. […] After the appropriate time, assay plates were fixed by transfer of 50 μL of pre-warmed (37° C.) 7.4% formaldehyde and 2 μg/mL Hoechst 33342 in PBS and incubation at room temperature for 30 minutes. Liquid was aspirated, plates were washed twice with 85 μL PBS, leaving the final wash in the plate. Plates were sealed with adhesive aluminum plate seals, and fluorescent images of three fields of view were acquired in the DAPI (Hoechst stained nuclei), FITC (TIF2-GFP) and Texas Red (AR-RFP) channels on an ImageXpress® Micro (IXM) automated HCS platform (Molecular Devices LLC, Sunnyvale, CA) using a 10× Plan Fluor 0.3 NA objective. Images were analyzed using the Translocation Enhanced (TE) image analysis module of the MetaXpress® software (Molecular Devices, LLC, San Jose, CA) as described previously (Fancher et al., Assay Drug Dev Technol. 2016, 14:453-477; Fancher et al., Assay Drug Dev Technol. 2018, 16:297-319; Hua et al., Assay Drug Dev Technol. 2014, 12:395-418; Hua et al., Methods Mol Biol. 2018, 1683:211-227).
For the 96-well AR-LBD H^3-DHT radioligand binding assay, eight minimum and maximum plate control wells were utilized to normalize the data. For the PC cell line growth inhibition assays the DMSO control data from the TO and T72 assay plates was used to assess the dynamic range of the T0 to T72 cell growth, and to calculate S:B ratios and Z′-factor coefficient statistics for the assay signal window (T0 to T72). To normalize the 72 h compound exposure PC growth inhibition data, the signals from the compound treated wells were processed and expressed as % of the T72 DMSO plate controls. IC50 and GI50 values for each of the bioassays were calculated using GraphPad Prism 9 software to plot and fit data to curves using the Sigmoidal dose response variable slope equation Y=Bottom+[Top-Bottom]/[1+10^(Log EC50−X)*HillSlope].
A positional AR-TFI2 protein-protein interaction biosensor (PPIB) assay was used to identify small molecules that inhibited DHT-induced formation of AR-TIF2 PPIs and/or disrupted pre-existing AR-TIF2 PPIs (Fancher et al., Assay Drug Dev Technol 2016, 14(8):453-477; Fancher et al., Assay Drug Dev Technol 2018, 16(6):297-319; Hua et al., Assay Drug Dev Technol 2014, 12:395-418; Hua et al., Methods Mol biol 2018, 1683:211-227). AR-LBD residues (662-919) were incorporated into one biosensor and TIF2 residues (725-840) containing the 3rd NR box LXXLL motif into the second interacting biosensor partner (Id.) The AR-TIF2 PPIB recapitulates the orthosteric ligand (OSL)-induced translocation of AR from the cytoplasm into the nucleus where PPIs with TIF2 result in colocalization of both biosensors in the nucleolus. Using three libraries, a total of 143,535 compounds were screened—a 10,000-compound ChemDiv PPI focused diversity library, a 50,000-compound ChemBridge diversity library, and a 83,535-compound library provided by the NCI's Chemical Biology Consortium. The 10K and 50K diversity libraries were subsets of 142K and 810K parent libraries, enabling screening of a representative subset of >1×10^6 compounds. AR-TIF2 PPI inhibitor and disruptor actives were confirmed in the HCS assay and counter screens designed to identify and exclude nuisance/interference or non-selective compounds (Fancher et al., Assay Drug Dev Technol 2018, 16(6):297-319). […]

[1] abbreviates: 25 nM DHT, read-out: Inhibition DHT-induced AR-TIF2 PPI Formation IC50.
Setting [2] is: compound then DHT, read-out: C then D IC50.

Read-outs that look alike come from different tables or passages of the source. Some results are limits rather than exact numbers.

As usually defined, the IC50 is the concentration at which inhibition is half-maximal.

As to `Cc1ccccc1-c1cc(O)c2c(c1)CN(c1nc(C(N)=O)cs1)CCO2` [Compound S1-1], the IC50 under setting [1] was 5.38 µM and the half-inhibitory concentration (IC50) under setting [2] worked out at 5.64 µM.

As for `Cc1nc(N)cc(N2CCOc3c(O)cc(-c4ccccc4C)cc3C2)n1` [Compound S1-2], under setting [2], the IC50 came out at 14.5 µM.

Regarding `Cc1ccccc1-c1cc(O)c2c(c1)CN(c1nccs1)CCO2` [Compound S1-3], the IC50 under setting [2] amounted to 30.5 µM. In the case of `Cc1ccccc1-c1cc(O)c2c(c1)CN(c1cc(N)ncn1)CCO2` [Compound S1-4], the IC50 is, setting by setting: under setting [1], greater than 100 µM; under setting [2], greater than 100 µM. `COc1cc(-c2ccc(C)s2)cc2c1OCCN(c1nc(C(N)=O)cs1)C2` [Compound S1-5]: the IC50 under setting [2] was found to be 26.2 µM.

For the compound `Cc1nsc(NC(=O)N2CCC(Sc3ccccc3C)CC2)n1` [Compound S2-6], the IC50 under setting [1] was 0.62 µM. In the case of `Cc1nsc(NC(=O)N2CCC(Cn3ccnc3)CC2)n1` [Compound S2-7], the IC50 reads like this: under setting [1], greater than 100 µM; under setting [2], greater than 100 µM. For the compound `Cc1c(-c2ccccc2F)[nH]c2ccc(CNC(=O)CCc3cn[nH]c3)cc12` [Compound S3-11], the IC50 amounted to 3.11 µM under setting [1] and 3.25 µM under setting [2].

Turning to `Cc1c(-c2ccccc2F)[nH]c2ccc(CNC(=O)CCc3cnccn3)cc12` [Compound S3-12], the IC50 under setting [2] was 5.13 µM. On the same count and under the same terms, in the case of `CC(=O)NCCC(=O)NCc1ccc2[nH]c(-c3ccccc3F)c(C)c2c1` [Compound S3-13] it was 7.98 µM; in that of `Cc1c(-c2ccccc2F)[nH]c2ccc(CNC(=O)c3ccc(CO)o3)cc12` [Compound S3-14], 2.42 µM; in that of `Cc1c(-c2ccc(F)cc2)[nH]c2ccc(CNC(=O)c3ccc(CO)o3)cc12` [Compound S3-15], 6.7 µM. For `Cc1cccc2c(-c3ccc(O)c(F)c3)c[nH]c12` [Compound S3-17], the IC50 under setting [2] worked out at 3.87 µM. For `CNC(=O)c1ccc(-c2c[nH]c3c(C)cccc23)cc1` [Compound S3-21], the IC50 under setting [1] is roughly 36 µM and the IC50 under setting [2] is 36.1 µM.
